# Assay results published in patent publication US20070203079A1, “Methods of using small molecule compounds for neuroprotection” (priority 2005, published 2007).
# Structures can show the parent of a compound that is named as a salt.
# Legend:
# Assay type in all cases: in vivo, C. elegans
# [1] = system: worms containing Punc-54::Q82::GFP+Punc-54::torsinA+Punc54::torsinA (ΔE); assay: Screen for reduction of polyglutamine protein aggregates in worms with wt and mutant torsinA; conditions: differentiated by Q82::GFP lines without torsinA, with wt torsinA or with mutant torsinA
# Procedure: (§1) C elegans nematodes were grown at 20° C. on NGM plates as described by Brenner (Brenner, Genetics, 1974, 77: 71-94). Several transgenic C. elegans lines were used for primary screens of the Prestwick small molecule library. A transgenic worm line expressing Punc-54::Q82-GFP; with both wild type (“wt”) (Punc=54: :torsinA) or mutant (Punc-54::torsinA(ΔE)). Torsin-A expresses a phenotype that results in visible protein aggregation under fluorescent microscope. Transgenic worms were plated on drug plates and progeny were studied for a return to soluble protein.
# (§2) Drugs were administered to C. elegans according to a standard procedure (Rand and Johnson, Methods Cell Biol, 1995, 48: 187-204), by mixing the solubilized drug with the agar medium on which the worms are grown. This mode of administration allows the continuous exposure of worms to the drug.
# Each drug was first dissolved in an appropriate solvent, followed by adding the drug solution into pre-autoclaved media, with the volume of drug solution already taken into account. […] Each plate was seeded with 100 μl concentrated E. coli OP50 bacteria.
# (§3) The screening assays used to identify the compounds use protein aggregation readouts to determine the specificities of molecular action. […]
# (§4) The methods for the aggregate analysis assay are described in Caldwell et al. (Hum Mol Genetics, 2003, 12(3): 307-319). […] MetaMorph Software (Universal Imaging Inc.) was used for pseudocoloration of images, image overlay, and aggregate size quantitation. For each worm line analyzed, average aggregate size was determined by capturing images of all aggregates in the posterior region of 30 L3-staged animals (for Q82::GFP aggregates) or all aggregates in 30 adult animals/day (for Q19::GFP analyses) at 1000× magnification. […]
# (§5) To see the effect of the candidate compounds on suppressing protein misfolding and aggregation, five gravid adult worms were placed onto each drug plate and grown at 20° C. for approximately 3 days. Thirty Fl worms at L3 stage and young adult stage were counted for aggregate number.
# [2] = system: worms expressing Punc-54::Q82::GFP+Punc-54::torsinA with wt torsinA only; assay: Protein aggregate assay in worms with wt torsinA only
# Procedure: as §1, §2
# Each drug was first dissolved in an appropriate solvent, followed by adding the drug solution into pre-autoclaved media, with the volume of drug solution already taken into account. […]
# as §3, §4, §5
# [3] = system: protein misfolding and aggregation in transgenic worms; assay: Preventative assay of protein aggregation (drug from hatching to L2 stage); conditions: exposure from hatching to L2 stage; scored at L3 and young adult
# Procedure: (§6) To see the preventative effects of the candidate drug compounds on protein misfolding and aggregation, five gravid adult worms were placed onto each drug plate and grown at 20° C. for approximately 3 days. 35-40 Fl worms at L2 stage were picked and transferred to a control plate with the same concentration of control solvent compared to the drug plate. Thirty worms at L3 stage were counted for aggregate number 8 hours later. Thirty young adults were analyzed 32 hours later.
# (§7) To calculate the scaled effectiveness of special regimen of drugs on worms based on standardized decrease in protein aggregates. The following formula was used: (A−B)/(A−C)×100%, where
# (§8) A=number of aggregates for worms growing on solvent control plates
# (§9) B=number of aggregates for worms grown on the specific drug plate for the entire life of the worms
# C=number of aggregates for worms that received pre-L2 exposure and were then removed to solvent control plates
# (§10) If the regimen has no effect, the value would equal 0%. Conversely, if the regimen was as effective as raising the worms on the drug for their entire life, the value would equal 100%.
# [4] = system: protein misfolding and aggregation in transgenic worms; assay: Corrective assay of protein aggregation (drug from L2 stage onward); conditions: drug exposure from L2 stage onward; scored at L3 and young adult
# Procedure: as §6, with “corrective effect” for “preventative effects”, “a solvent control” for “each drug”, “a” for “a control plate with the same concentration of control solvent compared to the”
# as §7, §8, §9
# C=number of aggregates for worms that received exposure from L2 stage (until adulthood)
# as §10
# [5] = system: Pdat-1::GFP+Pdat-1::α-synuclein+Pdat-1::torsinA worms; assay: α-synuclein toxicity assay, wt torsinA
# Text: (§11) We have previously shown that torsinA can prevent dopamine (“DA”) neuron degeneration resulting from overexpression of α-synuclein in the DA neurons of C. elegans, while torsinA (“ΔE”) has a reduced neuroprotection (Cao et al., J Neurosci, 2005, 25(1): 3801-3812). Specifically, only 26.1±5.3% of the worms expressing Pdat-1::GFP+Pdat-1::α-synuclein maintained all 4 wildtype CEP DA neurons as 4 day adults while the percentages of the worms expressing Pdat-1::GFP+Pdat-1::α-synuclein+Pdat-1::torsinA and Pdat-1::GFP+Pdat-1::α-synuclein+Pdat-1:: torsinA (ΔE) are 57.3±1.6% and 42.2±7.3%, respectively (Cao et al., J Neurosci, 2005, 25(1): 3801-3812) (FIG. 8).
# (§12) All molecules are coded by Prestwick Library number. TorsinA-dependent compounds identified from the aggregation assay have torsinA-specific effects and, therefore, are likely to function in the same manner in the α-synuclein toxicity assay. All three α-synuclein transgenic lines were exposed to the five torsinA-dependent compounds to determine their torsinA-specificity (FIG. 9). As expected, none of these compounds had any effect in Pdat-1::GFP+Pdat-1::α-synuclein when torsinA expression is absent.
# [6] = system: Pdat-1::GFP+Pdat-1::α-synuclein+Pdat-1:: torsinA (ΔE) worms; assay: α-synuclein toxicity assay, mutant torsinA
# Text: as §11, §12
# [7] = system: worms containing Pdat-1::GFP+Pdat-1::torsinA+Pdat-1::torsinA (ΔE) after 6-OHDA exposure; assay: 6-OHDA dopaminergic neurodegeneration in worms with wt and mutant torsinA; conditions: wt and mutant torsinA co-expressed; 6-OHDA insult
# Text: Previous studies have established that the “CEP” and “ADE” mechanosensory neurons in C. elegans undergo readily discernable neuronal degeneration after treatment with the dopamine-selective neurotoxin 6-OHDA (Nass et al, 2002). The toxicity of 6-OHDA is mediated through the formation of reactive oxygen species by the generation of hydrogen peroxide and […] via a nonenzymatic auto-oxidation process (Kumar et al., 1995; Foley and Riederer, 2000). […] This degeneration can be monitored in living animals by coexpressing with green fluorescent protein and categorized into three temporally and morphologically distinct stages, including neuronal process blebbing, cell body rounding with process loss, and cell body loss. These characteristic changes reproducibly appear in this order within a few hours, recapitulating observations in MPTP-treated monkeys and in 6-OHDA-treated rats, in which damage to striatal terminals leads to retrograde changes and precedes that of SNpc cell bodies (Berger et al., 1991; Herkenham et al., 1991). The actions of torsin protein in 6-OHDA-mediated neurodegeneration has recently been shown (Cao et al., J Neurosci, 25(1):3801-3812). Animals were treated with various concentrations of 6-OHDA and neurodegeneration was followed over time, as worms develop and age, by co-expression of a dopamine GFP marker in these transparent animals.
# C. elegans nematodes were grown at 25° C. on NGM plates as described by Brenner (Brenner, Genetics, 1974, 77: 71-94). Two transgenic C. elegans lines were used for primary screens of the Prestwick small molecule library. A transgenic worm line expressing Pdat-1::GFP; with both wild type (Pdat-1::torsinA) or mutant (Pdat-1:::torsinA(ΔE)). Torsin-A expresses a phenotype that results in visible neurodegeneration after treatment with 6-OHDA. Transgenic worms were plated on drug plates and progeny were studied for morphological changes in the 8 dopaminergic neurons present in C. elegans.
# Drugs were administered to C. elegans according to a standard procedure (Rand and Johnson, Methods Cell Biol, 1995, 48: 187-204) by mixing the solubilized drug with the agar medium on which the worms are grown. This mode of administration allows the continuous exposure of worms to the drug.
# Each drug was first dissolved in an appropriate solvent, followed by adding the drug solution into pre-autoclaved media, with the volume of drug solution already taken into account. All drugs were tested at 0.5 mg/ml initial concentration, a few of which were toxic to worms and then tested at 0.1 mg/ml or 0.025 mg/ml concentration. Each plate was seeded with 100 μl concentrated E. coli OP50 bacteria
# Age-synchronized worms were obtained by treating gravid adults with 2% sodium hypochlorite and 0.5M NaOH to isolate embryos (Lewis Fleming, 1995). These embryos were grown for 30 h at 25° C. At the L3 stage, larvae were incubated with 10 mM (50 mM) 6-OHDA and 2 mM (or 10 mM) ascorbic acid for 1 h with gentle agitation every 10 minutes. (Nass et al., 2002). The worms were then washed and spread onto NGM plates seeded with bacteria (OP50) and scored at time points ranging from 2 to 72 h after 6-OHDA exposure.
# Immediately after 6-OHDA treatment, worms containing the transgenes were selected under a fluorescence dissecting microscope, based on the presence of GFP, and transferred to a fresh NGM plate seeded with OP50. For each time point, 30-40 worms were applied to a 2% agarose pad and immobilized with 3 mM levamisole. Worms were examined under a Nikon Eclipse E800 epifluorescence microscope equipped with an Endow GFP filter cube (Chroma Technology, Rockingham, Vt.). For ease of analysis, only the four CEP DA neurons in the head of the worm were scored. […]
# [8] = system: GFP::DAT-1; assay: Pdat-1::GFP::DAT-1 expression within DA neurons; conditions: for Neurons with cell body and dendritic/axonal GFP: water control 70%; for Mean pixel intensity of cell bodies ± SEM (fluorescence intensity): water control 1970 ± 80, compounds at 1.85, 1.49, 1.86 mM
# [9] = system: transgenic worms containing the transgene Punc-54::Q82::GFP without any torsinA expression; assay: Protein aggregate assay in worms without torsinA expression
# Procedure: C elegans nematodes were grown at 20° C. on NGM plates as described by Brenner (Brenner, Genetics, 1974, 77: 71-94). Several transgenic C. elegans lines were used for primary screens of the Prestwick small molecule library. A transgenic worm line expressing Punc-54::Q82-GFP; with both wild type (“wt”) (Punc=54: :torsinA) or mutant (Punc-54::torsinA(ΔE)). Torsin-A expresses a phenotype that results in visible protein aggregation under fluorescent microscope. Transgenic worms were plated on drug plates and progeny were studied for a return to soluble protein. […]
# as §3, §4
# [10] = Pdat-1::GFP::DAT-1, listed as Ciclopirox etnanolamine
smiles,measurement,setting,value
"CCn1cc(C(=O)O)c(=O)c2cc3c(cc21)OCO3 [Compound 193, Oxolinic Acid]",Specificity in worm assay,[1],wt torsinA
same,reduction of protein aggregation,[2],reduced protein aggregation
same,preventative effect on protein aggregation,[3],seem to be beneficial
same,corrective effect on protein aggregation,[4],seem to be beneficial
same,enhanced wild type DA neuron survival,[5],31.4±3.7%
same,enhanced DA neuron survival,[6],no significant neuroprotection
"Cc1onc(-c2ccccc2Cl)c1C(=O)N[C@@H]1C(=O)N2[C@@H]1SC(C)(C)[C@@H]2C(=O)O [Compound 186, Cloxacillin sodium salt]",neuroprotection of dopaminergic neurons against 6-OHDA,[7],"neuroprotective actions in this model, albeit to a lesser degree"
Cc1cc(C2CCCCC2)n(O)c(=O)c1.NCCO [Ciclopirox ethanolamine],neuroprotection of dopaminergic neurons against 6-OHDA,[7],showed no neuroprotection
same,Worms with no GFP,"[8]; Pdat-1::GFP::DAT-1, water control 0%",0%
same,Neurons with cell body GFP only,"[8]; Pdat-1::GFP::DAT-1, water control 30%",32.3%
same,Neurons with cell body and dendritic/axonal GFP,[8]; Pdat-1::GFP::DAT-1,66.7%
same,Neurons with cell body and dendritic/axonal GFP,[8]; [10],66.7%
same,Mean pixel intensity of cell bodies ± SEM (fluorescence intensity),[8]; Pdat-1::GFP::DAT-1,1923 A.U.
same,Mean pixel intensity of cell bodies ± SEM (fluorescence intensity),[8]; [10],1923 ± 85 A.U.
same,effect on GFP::DAT-1 level,[8]; result in words,did not have any significant effect
"CCCCOc1ccc(C(=O)CCN2CCCCC2)cc1 [Compound 264, Dyclonine HCl]",reduction of protein aggregates,[9],reduced the presence of protein aggregates
"CC1=C(C(=O)O)N2C(=O)[C@@H](NC(=O)[C@H](N)c3ccc(O)cc3)[C@H]2SC1 [Compound 434, Cefadroxil]",neuroprotection of dopaminergic neurons against 6-OHDA,[7],neuroprotective actions to the same degree as compound 235
"CC1(C)S[C@@H]2[C@H](NC(=O)[C@H](N)c3ccc(O)cc3)C(=O)N2[C@H]1C(=O)O [Compound 357, Amoxiciflin]",neuroprotection of dopaminergic neurons against 6-OHDA,[7],"neuroprotective actions in this model, albeit to a lesser degree"
"CC1(C)S[C@@H]2[C@H](NC(=O)C(C(=O)O)c3ccccc3)C(=O)N2[C@H]1C(=O)O (stereo partly shown) [Compound 703, Carbenicillin disodium salt]",neuroprotection of dopaminergic neurons against 6-OHDA,[7],neuroprotective actions to the same degree as compound 235
